Source: US20230064983A1 (priority 2020, published 2023)
“And” between values parts separate entries of the source, which are not always exact repeats. Equal values may be shown once.

Key:
[1] = biological target: T1, EGFR with insertion SVD between D770 and N771 (mutEGFR D770_N771insSVD) (Homo sapiens, UniProt P00533, DUP768-770); assay: Exon20-Mutant-EGFR(D770_N771insSVD) kinase assay (TR-FRET); format: biochemical; conditions: 2 mM ATP, Table 2
T1 construct: amino acids R669 to A1210; made in house; host or cells: Sf9 insect cells (baculovirus)

Ba/F3-EGFR-WT cells = Ba/F3-EGFR-WT cells (Homo sapiens, UniProt P00533); assay: Ba/F3 cell survival assay, wild type EGFR; format: cell-based; conditions: Cell Titer-Glo, 48 h, with 10 ng/mL EGF; Table 4; read-out: BA/F3 (wild type) IC50
Bub1 = biological target: T2, Bub1 (Homo sapiens, UniProt O43683); assay: Bub1 high ATP kinase assay (TR-FRET); format: biochemical; conditions: Bub1 high ATP (2 mM) IC50, TR-FRET, 2 mM ATP; Table 3
T2 construct: catalytic domain of human Bub1 (amino acids 704-1085); His6 (N); made in house; host or cells: insect cells (Hi5)
In short: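 Enzyme was His6-tagged human Bub1 catalytic domain (aa 704-1085) from Hi5 insect cells, typically about 200 ng/ml, with a biotinylated peptide substrate at high ATP. Reaction ran 60 min at 22 °C, then was stopped with EDTA. Phosphopeptide was detected by TR-FRET (anti-phosphoserine antibody, Eu-labelled anti-mouse IgG, streptavidin-XL665), read as the 665/620 nm emission ratio.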

[2] = biological target: Ba/F3-EGFR-D770_N771insSVD cells (Homo sapiens, UniProt P00533, DUP768-770, cells depend on it); assay: Ba/F3 cell survival assay, EGFR D770_N771insSVD; format: cell-based; conditions: Cell Titer-Glo, 48 h, without IL-3; Table 4; read-out: BA/F3 (insSVD) IC50
Sequence of Ba/F3-EGFR-D770_N771insSVD cells (P00533 with tags, fused parts or gaps DUP768-770): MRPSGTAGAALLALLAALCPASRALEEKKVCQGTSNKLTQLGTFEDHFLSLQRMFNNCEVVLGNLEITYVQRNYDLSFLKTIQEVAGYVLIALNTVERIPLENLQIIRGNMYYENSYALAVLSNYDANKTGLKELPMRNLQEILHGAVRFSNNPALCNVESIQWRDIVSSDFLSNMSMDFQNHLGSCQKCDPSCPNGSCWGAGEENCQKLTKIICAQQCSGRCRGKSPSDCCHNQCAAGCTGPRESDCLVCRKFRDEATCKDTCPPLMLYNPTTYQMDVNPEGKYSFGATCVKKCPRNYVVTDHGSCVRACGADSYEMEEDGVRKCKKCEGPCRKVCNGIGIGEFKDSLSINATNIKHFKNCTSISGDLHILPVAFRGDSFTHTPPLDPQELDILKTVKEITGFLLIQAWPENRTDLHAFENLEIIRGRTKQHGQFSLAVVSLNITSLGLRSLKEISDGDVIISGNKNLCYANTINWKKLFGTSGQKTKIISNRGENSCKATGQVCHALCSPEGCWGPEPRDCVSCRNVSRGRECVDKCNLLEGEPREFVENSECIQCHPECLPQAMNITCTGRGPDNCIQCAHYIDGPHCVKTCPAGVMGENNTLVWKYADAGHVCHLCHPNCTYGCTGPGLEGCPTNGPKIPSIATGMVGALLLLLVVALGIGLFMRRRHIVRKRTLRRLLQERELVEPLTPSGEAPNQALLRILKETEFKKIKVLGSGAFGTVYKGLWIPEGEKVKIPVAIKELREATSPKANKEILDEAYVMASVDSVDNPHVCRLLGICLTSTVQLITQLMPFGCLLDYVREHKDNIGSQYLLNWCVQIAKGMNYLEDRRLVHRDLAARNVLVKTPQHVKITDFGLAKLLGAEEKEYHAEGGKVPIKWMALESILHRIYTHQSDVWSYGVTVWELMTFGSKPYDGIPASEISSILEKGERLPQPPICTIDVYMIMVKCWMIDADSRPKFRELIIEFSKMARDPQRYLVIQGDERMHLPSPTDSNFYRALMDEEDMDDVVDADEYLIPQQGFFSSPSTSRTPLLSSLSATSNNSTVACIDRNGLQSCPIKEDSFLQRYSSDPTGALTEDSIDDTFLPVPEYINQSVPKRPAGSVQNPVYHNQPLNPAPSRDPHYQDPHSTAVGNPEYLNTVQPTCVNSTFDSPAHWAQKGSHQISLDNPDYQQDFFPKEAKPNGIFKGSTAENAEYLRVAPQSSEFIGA

Sequence of Ba/F3-EGFR-WT cells (P00533 whole entry, looked up, change not shown): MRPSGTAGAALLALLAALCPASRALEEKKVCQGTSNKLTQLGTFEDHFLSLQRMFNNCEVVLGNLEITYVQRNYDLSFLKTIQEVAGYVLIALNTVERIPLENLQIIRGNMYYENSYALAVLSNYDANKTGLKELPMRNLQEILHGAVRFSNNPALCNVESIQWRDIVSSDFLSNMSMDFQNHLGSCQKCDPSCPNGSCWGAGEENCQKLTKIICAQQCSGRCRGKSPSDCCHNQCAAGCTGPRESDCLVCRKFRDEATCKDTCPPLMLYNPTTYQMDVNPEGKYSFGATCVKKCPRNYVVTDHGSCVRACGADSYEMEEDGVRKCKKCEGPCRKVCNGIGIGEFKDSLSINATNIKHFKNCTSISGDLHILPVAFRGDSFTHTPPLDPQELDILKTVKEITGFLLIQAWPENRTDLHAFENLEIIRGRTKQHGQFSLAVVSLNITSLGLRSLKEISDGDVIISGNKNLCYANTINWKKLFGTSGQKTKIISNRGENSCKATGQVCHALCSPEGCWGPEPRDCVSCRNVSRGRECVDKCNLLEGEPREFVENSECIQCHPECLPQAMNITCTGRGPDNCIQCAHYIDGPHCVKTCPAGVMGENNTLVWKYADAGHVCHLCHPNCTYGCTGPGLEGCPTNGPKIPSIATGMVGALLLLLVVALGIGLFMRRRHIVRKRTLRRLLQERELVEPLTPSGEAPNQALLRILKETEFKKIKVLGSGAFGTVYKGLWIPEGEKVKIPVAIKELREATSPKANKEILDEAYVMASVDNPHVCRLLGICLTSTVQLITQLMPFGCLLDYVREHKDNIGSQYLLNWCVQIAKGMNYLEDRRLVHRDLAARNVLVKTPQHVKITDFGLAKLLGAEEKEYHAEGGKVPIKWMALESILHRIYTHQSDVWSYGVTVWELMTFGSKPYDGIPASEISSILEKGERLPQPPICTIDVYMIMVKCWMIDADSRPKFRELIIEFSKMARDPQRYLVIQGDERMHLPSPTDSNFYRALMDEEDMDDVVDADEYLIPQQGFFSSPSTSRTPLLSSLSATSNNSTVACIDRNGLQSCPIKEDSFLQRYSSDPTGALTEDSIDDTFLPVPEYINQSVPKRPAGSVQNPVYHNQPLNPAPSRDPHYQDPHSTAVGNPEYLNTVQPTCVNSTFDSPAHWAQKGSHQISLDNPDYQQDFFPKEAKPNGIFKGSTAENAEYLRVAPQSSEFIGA
T1 sequence (P00533 other isoform, or with tags, fused parts or gaps DUP768-770): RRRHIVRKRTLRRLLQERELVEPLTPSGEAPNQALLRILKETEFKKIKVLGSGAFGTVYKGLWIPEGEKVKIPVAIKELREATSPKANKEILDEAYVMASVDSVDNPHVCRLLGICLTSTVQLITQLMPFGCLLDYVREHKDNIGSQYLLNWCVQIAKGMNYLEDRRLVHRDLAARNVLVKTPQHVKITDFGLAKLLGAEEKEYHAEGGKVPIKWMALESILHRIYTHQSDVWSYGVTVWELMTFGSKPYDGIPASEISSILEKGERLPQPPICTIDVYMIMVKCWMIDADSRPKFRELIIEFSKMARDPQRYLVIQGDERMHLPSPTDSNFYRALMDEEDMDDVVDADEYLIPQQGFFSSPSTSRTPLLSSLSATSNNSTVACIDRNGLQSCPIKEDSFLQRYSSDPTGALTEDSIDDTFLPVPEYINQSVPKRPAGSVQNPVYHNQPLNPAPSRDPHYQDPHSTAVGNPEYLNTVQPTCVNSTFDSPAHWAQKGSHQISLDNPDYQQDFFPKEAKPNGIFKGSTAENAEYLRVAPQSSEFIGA
T2 sequence (O43683 704-1085): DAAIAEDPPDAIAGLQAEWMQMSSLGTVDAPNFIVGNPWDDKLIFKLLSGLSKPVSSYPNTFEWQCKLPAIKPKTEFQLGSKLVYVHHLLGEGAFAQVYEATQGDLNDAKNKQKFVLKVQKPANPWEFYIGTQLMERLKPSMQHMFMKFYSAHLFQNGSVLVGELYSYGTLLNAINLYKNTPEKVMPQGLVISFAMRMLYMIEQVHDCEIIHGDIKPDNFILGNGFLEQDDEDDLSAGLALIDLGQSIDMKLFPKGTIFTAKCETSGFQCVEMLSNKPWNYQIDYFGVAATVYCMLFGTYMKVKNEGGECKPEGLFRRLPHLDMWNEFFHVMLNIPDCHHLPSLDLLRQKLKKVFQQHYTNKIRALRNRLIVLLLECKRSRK

Row | SMILES | mutEGFR (D770_N771insSVD) kinase assay IC50 [1] | IC50 (Bub1) | GI50 (Ba/F3-EGFR-WT cells) [nM] | GI50 [2] [nM]
1 | COc1c(Cl)cccc1Nc1c(-c2ccncc2OCC2COCCO2)[nH]c2c1C(=O)NCC2C (single isomer, unassigned) [Example 36, 3-(3-chloro-2-methoxy-anilino)-2-[3-(1,4-dioxan-2-ylmethoxy)-4-pyridyl]-7-methyl-1,5,6,7-tetrahydropyrrolo[3,2-c]pyridin-4-one] | 331 pM | 4.9 µM | 963 | 75.3
2 | COCC(C)Oc1cnccc1-c1[nH]c2c(c1Nc1cccc(Cl)c1OC)C(=O)N[C@@H]1CCC[C@H]21 (single isomer, unassigned) [Example 50] | 393 pM | > 20 µM | 1650 | 349
3 | COCC(C)Oc1cnccc1-c1[nH]c2c(c1Nc1cccc(Cl)c1OC)C(=O)N[C@H](C)C2 (mixture of isomers) [Example 41, (6R)-3-(3-chloro-2-methoxy-anilino)-2-{3-[(1-methoxypropan-2-yl)oxy]-4-pyridyl}-6-methyl-1,5,6,7-tetrahydropyrrolo[3,2-c]pyridin-4-one] | 178 pM | 17 µM | 479 | 39.8
4 | COc1c(Cl)cccc1Nc1c(-c2ccncc2OCC(C)(C)OC)[nH]c2c1C(=O)N[C@H](C)C2 [Example 1, (6R)-3-(3-chloro-2-methoxyanilino)-2-[3-(2-methoxy-2-methylpropoxy)pyridin-4-yl]-6-methyl-1,5,6,7-tetrahydro-4H-pyrrolo[3,2-c]pyridin-4-one] | 135 pM | 1.32 µM | 417 | 17.8
5 | COc1c(Cl)cccc1Nc1c(-c2ccncc2OCC2COCCO2)[nH]c2c1C(=O)NCC2C (single isomer, unassigned) [Example 37, 3-(3-chloro-2-methoxy-anilino)-2-[3-(1,4-dioxan-2-ylmethoxy)-4-pyridyl]-7-methyl-1,5,6,7-tetrahydropyrrolo[3,2-c]pyridin-4-one] | 318 pM | 2.87 µM | 1090 | 149
6 | COc1c(Cl)cccc1Nc1c(-c2ccncc2OC[C@@H]2CN(C)CCO2)[nH]c2c1C(=O)N[C@H](C)C2 [Example 11, (6R)-3-(3-chloro-2-methoxyanilino)-6-methyl-2-(3-{[(2S)-4-methylmorpholin-2-yl]methoxy}pyridin-4-yl)-1,5,6,7-tetrahydro-4H-pyrrolo[3,2-c]pyridin-4-one] | 179 pM | > 20 µM | 264 | 17.8
7 | COc1c(Cl)cccc1Nc1c(-c2ccncc2OC[C@@H]2CCO2)[nH]c2c1C(=O)N[C@@H](C)C2 [Example 7, (6S)-3-(3-chloro-2-methoxyanilino)-6-methyl-2-(3-{[(2S)-oxetan-2-yl]methoxy}pyridin-4-yl)-1,5,6,7-tetrahydro-4H-pyrrolo[3,2-c]pyridin-4-one] | 85.4 pM and <72.5 pM | > 20 µM | 384 | 25.7
8 | COc1c(F)cccc1Nc1c(-c2ccncc2OC[C@@H]2CCCO2)[nH]c2c1C(=O)NC(C)C2 (single isomer, unassigned) [Example 10] | 95.7 pM | > 20 µM | 382 | 31.7
9 | COc1c(Cl)cccc1Nc1c(-c2ccncc2OC[C@@H]2CCCO2)[nH]c2c1C(=O)NCC2CCO (single isomer, unassigned) [Example 17] | 238 pM | > 20 µM | 1580 | 230
10 | COc1c(Cl)cccc1Nc1c(-c2ccncc2OCC2CCCCO2)[nH]c2c1C(=O)N[C@H](C)C2 (single isomer, unassigned) [Example 29] | 176 pM | 2.39 µM | 288 | 11
11 | COc1c(Cl)cccc1Nc1c(-c2ccncc2OCC2CCCCO2)[nH]c2c1C(=O)NCC2C (single isomer, unassigned) [Example 47, 3-(3-chloro-2-methoxy-anilino)-7-methyl-2-[3-(tetrahydropyran-2-ylmethoxy)-4-pyridyl]-1,5,6,7-tetrahydropyrrolo[3,2-c]pyridin-4-one] | 667 pM | 7.6 µM | 1990 | 106
12 | COc1c(Cl)cccc1Nc1c(-c2ccncc2OC[C@@H]2CCCO2)[nH]c2c1C(=O)NCC2CCO (single isomer, unassigned) [Example 18] | 113 pM | 19.2 µM and > 20 µM | 362 | 26.4

Second part, led by results:

Row | mutEGFR (D770_N771insSVD) kinase assay IC50 [1] | IC50 (Bub1) | SMILES | GI50 (Ba/F3-EGFR-WT cells) [nM] | GI50 [2] [nM]
13 | 131 pM | 2.67 µM | COc1c(Cl)cccc1Nc1c(-c2ccncc2OCC(C)OC)[nH]c2c1C(=O)N[C@H](C)C2 (mixture of isomers) [Example 80, (6R)-3-(3-chloro-2-methoxy-anilino)-2-[3-(2-methoxypropoxy)-4-pyridyl]-6-methyl-1,5,6,7-tetrahydropyrrolo[3,2-c]pyridin-4-one] | 628 | 19.9
14 | 179 pM | 1.16 µM | COc1c(Cl)cccc1Nc1c(-c2ccncc2OCC2COC(C)(C)CO2)[nH]c2c1C(=O)NC1(CC1)C2 (single isomer, unassigned) [Example 134, 3′-(3-chloro-2-methoxyanilino)-2′-(3-{[5,5-dimethyl-1,4-dioxan-2-yl]methoxy}pyridin-4-yl)-1′,7′-dihydrospiro[cyclopropane-1,6′-pyrrolo[3,2-c]pyridin]-4′(5′H)-one] | 718 | 92.8
15 | 241 pM | 0.439 µM | COc1c(Cl)cccc1Nc1c(-c2ccncc2OCC2COCCO2)[nH]c2c1C(=O)NC1(CCC1)C2 (stereo not drawn) [Example 123, 3-(3-chloro-2-methoxy-anilino)-2-[3-(1,4-dioxan-2-ylmethoxy)-4-pyridyl]spiro[5,7-dihydro-1H-pyrrolo[3,2-c]pyridine-6,1′-cyclobutane]-4-one] | 604 | 33.9
16 | 121 pM | 1.03 µM | Cc1c(Cl)cccc1Nc1c(-c2ccncc2OCC2COCCO2)[nH]c2c1C(=O)N[C@H](C)C2 (stereo partly drawn) [Example 102, (6R)-3-(3-chloro-2-methylanilino)-2-{3-[(1,4-dioxan-2-yl)methoxy]pyridin-4-yl}-6-methyl-1,5,6,7-tetrahydro-4H-pyrrolo[3,2-c]pyridin-4-one] | 869 | 38.7
17 | 235 pM | 0.446 µM | COc1c(Cl)cccc1Nc1c(-c2ccncc2OCC2COCCO2)[nH]c2c1C(=O)NC1(CCC1)C2 (single isomer, unassigned) [Example 125, 3-(3-chloro-2-methoxy-anilino)-2-[3-(1,4-dioxan-2-ylmethoxy)-4-pyridyl]spiro[5,7-dihydro-1H-pyrrolo[3,2-c]pyridine-6,1′-cyclobutane]-4-one] | 948 | 40.4
18 | 282 pM | 14.5 µM | COc1c(Cl)cccc1Nc1c(-c2ccncc2OCC2COCCO2)[nH]c2c1C(=O)N[C@@H]1CCC[C@H]21 (single isomer, unassigned) [Example 53] | 712 | 34.9
19 | 631 pM | > 20 µM | COc1c(Cl)cccc1Nc1c(-c2ccncc2OCC2COC(C)(C)CO2)[nH]c2c1C(=O)NCC2C (single isomer, unassigned) [Example 94, 3-(3-chloro-2-methoxy-anilino)-2-{3-[(5,5-dimethyl-1,4-dioxan-2-yl)methoxy]-4-pyridyl}-7-methyl-1,5,6,7-tetrahydropyrrolo[3,2-c]pyridin-4-one] | 1080 | 66.6
20 | 255 pM | 1.55 µM | Cc1c(Cl)cccc1Nc1c(-c2ccncc2OCC2COCCO2)[nH]c2c1C(=O)NCC2C (single isomer, unassigned) [Example 70, 3-(3-chloro-2-methyl-anilino)-2-[3-(1,4-dioxan-2-ylmethoxy)-4-pyridyl]-7-methyl-1,5,6,7-tetrahydropyrrolo[3,2-c]pyridin-4-one] | 4630 | 224
21 | 227 pM | 9.13 µM | COc1c(Cl)cccc1Nc1c(-c2ccncc2OCC2CCCCO2)[nH]c2c1C(=O)NCC2C (single isomer, unassigned) [Example 48, 3-(3-chloro-2-methoxy-anilino)-7-methyl-2-[3-(tetrahydropyran-2-ylmethoxy)-4-pyridyl]-1,5,6,7-tetrahydropyrrolo[3,2-c]pyridin-4-one] | 611 | 25.7
